Laboratory results reported in publication PMC7465040, “Cytotoxic and Anti-Plasmodial Activities of Stephania dielsiana Y.C. Wu Extracts and the Isolated Compounds” (Molecules, 2020).
Like-named read-outs stand apart in the source and are kept apart here.

Columns and labels:
184B5 = assay: SRB cell proliferation assay, 184B5 non-cancer cells; type: cell-based, human; settings: Homo sapiens
Experimental: (§1) In vitro anticancer study: The in vitro anti-proliferative tests were carried out as described previously, using aliquots of the cell lines used therein. Briefly, HeLa, MDA-MB-231 and MDA-MB-468, MCF7, and 184B5 and MCF 10A cell lines were purchased from ATCC. The identity of the cell lines presented in this study were verified by short tandem repeat profiling by Genetica DNA Laboratories (www.celllineauthentication.com) (April 8, 2015). MCF10A was grown in DMEM F12 medium supplemented with 0.02 μg/mL epidermal growth factor, 10% FBS, 10 μg/mL insulin and […] hydrocortisone. MDA-MB-468 were grown in DMEM supplemented with 10% FBS and antibiotics cocktail (100 μg/mL streptomycin, 100 units/mL penicillin and 250 ng/mL amphotericin B). SRB cell proliferation assays were carried out as previously described, with some minor modifications. The concentration range for all tested cell lines were from 100–0.39 μg/mL for extracts and 100–0.39 μM for pure compounds. […] All experiments were carried out at least twice.

MDA-MB-468 = assay: SRB cell proliferation assay, MDA-MB-468; type: cell-based, human; settings: for IC50: Homo sapiens, read-out: IC50 (μM ± SD) MDA-MB-468; for Selectivity index (SI) 184B5 versus MDA-MB-468 / Selectivity index (SI) MCF10A versus MDA-MB-468: Table 2B; for Selectivity index (SI) 184B5 versus MDA-MB-468: non-cancer 184B5 vs cancer MDA-MB-468; for Selectivity index (SI) MCF10A versus MDA-MB-468: non-cancer MCF10A vs cancer MDA-MB-468
Experimental: as §1

[1] = test system: chloroquine-resistant W2 P. falciparum strain; assay: In vitro anti-plasmodial assay (HRP2 ELISA), W2; type: cell-based, Plasmodium falciparum; settings: for IC50: read-out: IC50 (μM ± SD) W2; for SI W2 184B5 / SI W2 MCF10A: Table 3; for SI W2 184B5: selectivity index between 184B5 and parasites W2; for SI W2 MCF10A: selectivity index between MCF10A and parasites W2
Experimental: (§2) Parasites were grown in A-positive human blood (Etablissement Français du Sang, Marseille, France) under controlled atmospheric conditions that consisted of 10% O2, 5% CO2, and 85% N2 at 37 °C with a humidity of 95%.
(§3) In vitro anti-plasmodial assay: The two P. falciparum strains 3D7 and W2 were synchronized twice with sorbitol before use. The clonality of these strains was verified both in our laboratory and in an independent laboratory from the Worldwide Anti-malarial Resistance Network (WWARN) by PCR genotyping of the polymorphic genetic markers msp1 and msp2 and microsatellite loci. The compounds were re-suspended in methanol or DMSO 5% (v/v) and then diluted in methanol to obtain final concentrations ranging from 0.008 to 500 μg/mL (final concentration of 0.5% of methanol or DMSO). […] The plates were incubated for 72 h at 37 °C in controlled atmospheric conditions 5% CO2, 10% O2, and […]. After thawing the plates, haemolysed cultures were homogenized by vortexing the plates. Both the success of the drug susceptibility assay and the appropriate volume of haemolysed culture to use for each assay were determined for each clinical isolate during a preliminary HRP2 ELISA. Both the pre-test and subsequent ELISA assays were performed using a commercial kit (Malaria Ag Celisa, ref KM2159, Cellabs PTY LTD, Brookvale, Australia) according to the manufacturer’s recommendation. The optical density (OD) of each sample was measured with a spectrophotometer (Safire 2, Tecan, Lyon, France). […] The anti-plasmodial in vitro assay was performed five times for each product. The IC50 values represented the mean value calculated from five experiments. According to Hout, a selectivity index (SI) was based on the ratio between anti-parasitic and cytotoxic activities. In the case of our study, a SI was calculated between non-tumorigenic cell line 184B5 and parasites 3D7 or W2 and/or MCF10A and these two parasites.

MDA-MB-231 = assay: SRB cell proliferation assay, MDA-MB-231; type: cell-based, human; settings: for IC50: Homo sapiens, read-out: IC50 (μM ± SD) MDA-MB-231; for Selectivity index (SI) 184B5 versus MDA-MB-231 / Selectivity index (SI) MCF10A versus MDA-MB-231: Table 2B; for Selectivity index (SI) 184B5 versus MDA-MB-231: non-cancer 184B5 vs cancer MDA-MB-231; for Selectivity index (SI) MCF10A versus MDA-MB-231: non-cancer MCF10A vs cancer MDA-MB-231
Experimental: as §1

[2] = test system: chloroquine-susceptible 3D7 P. falciparum strain; assay: In vitro anti-plasmodial assay (HRP2 ELISA), 3D7; type: cell-based, Plasmodium falciparum; settings: for IC50: read-out: IC50 (μM ± SD) 3D7; for SI 3D7 184B5 / SI 3D7 MCF10A: Table 3; for SI 3D7 184B5: selectivity index between 184B5 and parasites 3D7; for SI 3D7 MCF10A: selectivity index between MCF10A and parasites 3D7; for Selective index SI on 3D7 strain: vs 184B5 and MCF10A
Experimental: as §2, §3

[3] = test system: HeLa, MDA-MB231, MDA-MB-468, MCF7, 184B5 and MCF10A cell lines; assay: SRB cell proliferation assay, whole panel of cell lines; type: cell-based, human; settings: for IC50: Homo sapiens, read-out: IC50 values, range over the cell lines examined
Experimental: as §1

[4] = test system: Plasmodium falciparum 3D7 and W2 strains; assay: In vitro anti-plasmodial assay, both strains; type: cell-based
Experimental: as §2, §3

HeLa = assay: SRB cell proliferation assay, HeLa; type: cell-based, human; settings: for IC50: Homo sapiens, HeLa, 72 h, read-out: IC50 (μM ± SD) HeLa; for Selectivity index (SI) 184B5 versus HeLa / Selectivity index (SI) MCF10A versus HeLa: Table 2B; for Selectivity index (SI) 184B5 versus HeLa: non-cancer 184B5 vs cancer HeLa; for Selectivity index (SI) MCF10A versus HeLa: non-cancer MCF10A vs cancer HeLa
Experimental: as §1

MCF7 = assay: SRB cell proliferation assay, MCF7; type: cell-based, human; settings: for IC50: Homo sapiens, read-out: IC50 (μM ± SD) MCF7; for Selectivity index (SI) 184B5 versus MCF7 / Selectivity index (SI) MCF10A versus MCF7: Table 2B; for Selectivity index (SI) 184B5 versus MCF7: non-cancer 184B5 vs cancer MCF7; for Selectivity index (SI) MCF10A versus MCF7: non-cancer MCF10A vs cancer MCF7
Experimental: as §1

MCF 10A = assay: SRB cell proliferation assay, MCF10A non-cancer cells; type: cell-based; settings: Homo sapiens, read-out: IC50 (μM ± SD) MCF 10A
Experimental: as §1

[5] = 184B5, Table 2A, SRB, 72 h, read-out: IC50 (μM ± SD) 184B5
[6] = 184B5, Table 3, non-cancer cell line, read-out: IC50 (μM ± SD) 184B5
[7] = MDA-MB-468, Table 2A, SRB, 72 h
[8] = Plasmodium falciparum, W2, 72 h, 72 h, HRP2 ELISA, mean of five experiments
[9] = MDA-MB-231, Table 2A, SRB, 72 h
[10] = 72 h, HRP2 ELISA, mean of five experiments

Row | Compound | IC50 (184B5; [5]) [µM] | IC50 (184B5; [6]) [µM] | IC50 (MDA-MB-468; [7]) [µM] | Selectivity index (SI) 184B5 versus MDA-MB-468 (MDA-MB-468) | Selectivity index (SI) MCF10A versus MDA-MB-468 (MDA-MB-468) | IC50 [1, 8] [µM] | SI W2 184B5 [1] | SI W2 MCF10A [1] | IC50 (MDA-MB-231; [9]) [µM] | Selectivity index (SI) 184B5 versus MDA-MB-231 (MDA-MB-231) | Selectivity index (SI) MCF10A versus MDA-MB-231 (MDA-MB-231) | SI 3D7 184B5 [2] | SI 3D7 MCF10A [2] | Selective index SI on 3D7 strain [2] | Anti-plasmodial activity against both 3D7 and W2 (in words) [4] | IC50 (HeLa; Table 2A, SRB) [µM] | Selectivity index (SI) 184B5 versus HeLa (HeLa) | Selectivity index (SI) MCF10A versus HeLa (HeLa) | IC50 (MCF7; MCF7, Table 2A, SRB, 72 h) [µM] | Selectivity index (SI) 184B5 versus MCF7 (MCF7) | also measured
1 | COc1ccc2c(c1OC)-c1c3c(cc4c1C(C2)N(C)CC4)OCO3 (stereo not shown) [O-methylbulbocapine 5, O-methylbulbocapnine] | 73.26 ± 0.47 | 73.26 ± 0.47 | 48.1 ± 1.69 | 1.52 | 1.24 | 5.71 ± 0.62 | 12.83 | 10.42 | 56.6 ± 9.08 | 1.29 | 1.05 | 26.07 | 21.16 | > 20 | strong activity | 70.4 ± 11.4 | 1.04 | 0.85 | 39.4 ± 6.2 | 1.86 | IC50 ([2]; Plasmodium falciparum, 3D7, 72 h, 72 h, HRP2 ELISA, mean of five experiments): 2.81 ± 0.4 µM; IC50 ([3]; cancer and non-cancer cell lines): 39 to 73 µM; Selectivity index (SI) MCF10A versus MCF7 (MCF7): 1.51; IC50 (MCF 10A; Table 2A, SRB, 72 h): 59.5 ± 1.9 µM; IC50 (MCF 10A; Table 3, non-cancer cell line): 59.5 ± 1.9 µM
2 | COc1cc2c(cc1OC)[C@@H]1Cc3ccc(OC)c(OC)c3CN1CC2 [Tetrahydropalmatine 7, tetrahydropalmatine] | > 50 | > 50 | > 50 |  |  | 216 to 226 | >0.22 | >0.22 | > 50 |  |  | >0.18 | >0.18 |  | not active | > 50 |  |  | > 50 |  | IC50 [1, 10]: 226 ± 19.8 µM; IC50 [2, 10]: 276 ± 14.4 µM; Anti-proliferative activity (in words) [3]: did not show any effect; IC50 (MCF 10A; Table 2A, SRB, 72 h): > 50 µM; IC50 (MCF 10A; Table 3, non-cancer cell line): > 50 µM
3 | COc1ccc2c(c1OC)CC1c3c(cc4c(c3-2)OCO4)CCN1C (stereo not shown) [Crebanine 4, crebanine] |  |  |  | 2.66 | 2.65 |  | 21.96 | 21.83 |  | 1.22 | 1.21 | 30.41 | 30.23 | > 20 | strong activity |  | 0.99 | 0.98 |  | 1.56 | IC50 (184B5; 184B5, 72 h, read-out: IC50 (μM ± SD) 184B5): 47.4 ± 2.83 µM; IC50 (184B5; 184B5, read-out: IC50 (μM ± SD) 184B5): 47.4 ± 2.83 µM; IC50 (MDA-MB-468; MDA-MB-468, 72 h): 17.8 ± 4.63 µM; IC50 ([1]; Plasmodium falciparum, W2, 72 h): 2.16 ± 0.38 µM; IC50 (MDA-MB-231; MDA-MB-231, 72 h): 38.9 ± 7.1 µM; IC50 ([2]; Plasmodium falciparum, 3D7, 72 h): 1.56 ± 0.22 µM; IC50 [3]: 17 to 48 µM; IC50 (HeLa): 48.1 ± 2.38 µM; IC50 (MCF7; MCF7, 72 h): 30.5 ± 4.89 µM; Selectivity index (SI) MCF10A versus MCF7 (MCF7): 1.55; IC50 (MCF 10A; 72 h): 47.2 ± 4.37 µM; IC50 (MCF 10A): 47.2 ± 4.37 µM
